The values below come from PubChem BioAssay (NCI).

Test systems include M14 melanoma; LOX IMVI melanoma; UACC-62 melanoma; KM12 colon; OVCAR-5 ovarian; ACHN renal; K-562 leukemia; SK-OV-3 ovarian; NCI-H226 lung; SW-620 colon.
Experiment in all cases: DTP human tumour cell line panel, 48 h

Molecules are shown by their SMILES.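 Step 1: Grow cells in 96-well plates. Step 2: Expose to compound for 48 hours at 5 concentrations. Step 3: Interpolate endpoints linearly; if unreached, use highest concentration. Definition used: TGI = concentration required for complete inhibition of growth.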

In general, TGI refers to the concentration giving total growth inhibition. Low values mean greater sensitivity of the cells, high ones lower sensitivity of the cells. Turning to `CCCCn1c2c(n(CCCC)c1=S)-c1c(n(CCCC)c(=S)n1CCCC)S[Se][Se]S2`, the TGI in the assay on M14 melanoma was 31.7 µM; in the assay with LOX IMVI melanoma, 27.2 µM; in the assay with UACC-62 melanoma, 22.3 µM; with KM12 colon, > 53.5 µM; with OVCAR-5 ovarian, 6.72 µM; with ACHN renal it was 14.2 µM. The TGI is > 100 µM with K-562 leukemia, 55.1 µM in the assay on SK-OV-3 ovarian, 49.4 µM in the assay on NCI-H226 lung and 6.64 µM in the assay with SW-620 colon.
Turning to `O=C(CN1CCCCC1)CC(O)(C(F)(F)F)C(F)(F)F`, the TGI in the assay with M14 melanoma, in the assay on LOX IMVI melanoma, in the assay on UACC-62 melanoma, in the assay with KM12 colon, with OVCAR-5 ovarian and with ACHN renal was > 100 µM each time. The TGI in the assay on K-562 leukemia, in the assay with SK-OV-3 ovarian, in the assay on NCI-H226 lung and in the assay on SW-620 colon was > 100 µM in each case.
For the molecule `C[n+]1c(-c2ccccc2)cc2/c(=C\c3ccc([N+](=O)[O-])cc3)c3ccccc3n21`, the TGI in the assay on M14 melanoma was > 37.6 µM; in the assay on LOX IMVI melanoma it was 17.6 µM; with UACC-62 melanoma it was > 73.6 µM; with KM12 colon, 17.8 µM; in the assay with OVCAR-5 ovarian, 54.2 µM; in the assay with ACHN renal, > 38.5 µM. Further, the TGI in the assay on K-562 leukemia was > 100 µM; in the assay on SK-OV-3 ovarian, 25.4 µM; with NCI-H226 lung, 25.4 µM; with SW-620 colon it was 29 µM.
For the molecule `Cc1ccccc1OC(C)C(=O)NN1C(=O)CC(=O)N(c2ccc(Cl)cc2)C1=S` (stereo not given), the TGI in the assay with M14 melanoma, in the assay on LOX IMVI melanoma, in the assay with UACC-62 melanoma, in the assay with KM12 colon, with OVCAR-5 ovarian and in the assay with ACHN renal was > 100 µM each time. For the same molecule, the TGI in the assay with K-562 leukemia, in the assay on SK-OV-3 ovarian, with NCI-H226 lung and in the assay with SW-620 colon was > 100 µM in each case.
